Patent US7794712B2, “Production of mutant strain of Aspergillus fumigatus, method of assay for inhibiting siderophore biosynthesis and diagnostic method for detecting likely Aspergillus fumigatus infection” (priority 2004, dated 2010)
Where “and” joins values, the source holds several entries; their conditions need not be identical. Equal entries are not always repeated. Non-standard residues stand in square brackets, D forms with d. Residues, ends and D or L forms follow the SMILES beside them. ξ: configuration not given here. Orn(N5-OH,N5-Ac) = CC(=O)N(O)CCC[C@H](N)C(=O)O; ξOrn(N(OH)Ac) = CC(=O)N(O)CCCC(N)C(=O)O

Key:
[1] = tested on: A. fumigatus ATCC 13073; assay: Growth of A. fumigatus in MEM made iron limiting with 2,2′-dipyridyl; type: cell-based, Aspergillus fumigatus; conditions: MEM (5 ml) with 250 μM 2,2′-dipyridyl; holo-/apotransferrin 25 μM, FeCl3 50 μM
Text: The inventors have shown that holotransferrin but not apotransferrin supports the growth of A. fumigatus in iron-depleted medium. MEM was made iron limiting by the addition of the iron-chelator 2,2′-dipyridyl.

[2] = tested on: A. fumigatus wild type (ATCC 13073); assay: Growth (dry weight) in supplemented GA medium, parental / wild type strain; type: cell-based, Aspergillus fumigatus
Experimental: (§1) In this example the growth of various strains of A. fumigatus was monitored as follows. In a first experiment, A. fumigatus was inoculated into 5 ml volumes of YG medium or 5 ml of modified Grimm-Allen (GA) medium (1 g/L KHSO4, 3 g/L K2HPO4, 3 g/L (NH4)SO4, 20 g/L sucrose, 1 g/L citric acid, 2 mg/L thiamine, 20 μg/L CuSO4, 1 mg/L MnSO4, 5.5 mg/L ZnSO4, 810 mg/L MgSO4, pH 6.9) in 25 ml acid-washed flasks at a concentration of […]. GA medium was supplemented with […] FeCl3 where described. Human serum (male) was obtained from Sigma, stored frozen until use and added to media at a concentration of 10%. DesferriTAF and desferriferricrocin were purified from A. fumigatus cultures as described above and treated with 8-hydroxyquinoline to remove all bound iron. Siderophore solutions were filter-sterilized prior to addition to media.
(§2) In a second experiment, A. fumigatus was innoculated into 1 ml volumes of YM medium or 1 ml of the modified GA medium described above.
(§3) Alternatively, dry weights were measured by filtering the contents of each tube through pre-weighed, pre-dried Whatman #1 filters and rinsing thoroughly with distilled water. Filters were oven-dried and re-weighed.

[3] = tested on: A. fumigatus ΔsidA; assay: Growth (dry weight) in supplemented GA medium, ΔsidA strain; type: cell-based, Aspergillus fumigatus; conditions: for Restoration of growth of ΔsidA in the presence of human serum: 50 μM siderophore
Experimental: as §1, §2, §3

[4] = tested on: A. fumigatus ΔsidA^R; assay: Growth (dry weight) in supplemented GA medium, rescued strain ΔsidA^R; type: cell-based, Aspergillus fumigatus
Experimental: as §1, §2, §3

[5] = target: human holotransferrin (Homo sapiens, UniProt P02787); type: biochemical; conditions: for Affinity of iron removal from holotransferrin: compared with ferrichrome; for Concentration able to remove some iron from holotransferrin / Concentration at which complete absence of holotransferrin was observed: holotransferrin 25 μM, 16 h, 37° C., pH 7.4
Experimental: Purified desferri-siderophores and commercially available ferrichrome were serially diluted to final concentrations of 2.5 mM, 250 μM, 25 μM, 2.5 μM and 250 nM (lanes 1-5, respectively). Siderophores were incubated with 12.5 μM human holo-Tf at 37 degrees for 16 hours. Iron saturation of transferrin was assessed by urea-PAGE (13).
Holotransferrin also was incubated with commercially available desferriferrichrome for comparison. The iron saturation of transferrin was monitored by urea-PAGE. Desferritriacetylfusarinine C, desferriferricrocin, and desferriferrichrome were diluted to concentrations ranging from 5 mM to 5 μM and incubated with holotransferrin (25 μM) in 50 mM Tris-150 mM NaCl-20 mM NaHCO3 (pH 7.4) buffer for 16 h at 37° C. The extent of iron saturation of transferrin at the end of the incubation period was determined by urea-PAGE.

[6] = tested on: A. fumigatus 13073; assay: Siderophore secretion inhibitor assay (A440 after FeCl3 addition); type: cell-based, Aspergillus fumigatus; conditions: 3 days
Text: In this example 96-well sterile polystyrene filter plates as described above with white Duropore membranes at the base of the plate (Millipore) were used. The plates include a thick plastic layer under the wells, which has a one-way valve function that directs fluid into a receiving 96-well plate when the filter plate is subjected to a vacuum manifold or a centrifugal force. This layer can be peeled off if the membranes are to be sampled (punched) later.
Cultures were set up in the filter plates, with controls and inhibitors to be tested. After inclubation, culture fluid was pulled into a 96-well receiver plate, using the Beckman centrifuge and a JS 5.3 rotor designed to take 96-well plates. FeCl3 was added to the receiver plates, and A430 (general siderophores) or A440 (max for TAF) was read. Growth was scored in the plate by reading A600.
To test this method, different antibiotics were used to show inhibition of siderophore production by A. fumigatus 13073, as no inhibitors for the SidA gene product are currently known. Suitable ranges of concentrations of amphotericin B (fungizone), hygromycin, and nystatin were calculated based on the literature. Spores were harvested from A. fumigatus 13073 into PBS Tween, then washed once with PBS and counted. They were then diluted into Neilands' medium (without citrate) to give solutions of 2×10^5 and 2×10^6/ml. 100 μl of 2× spores and 100 μl of 2× antibiotics to yield a volume of 200 μl of Neilands' medium in each well, with the desired final concentrations of spores, 10^5 or 10^6/ml.
Antibiotics were prepared as follows. Amphotericin B came as a liquid solution, 250 µg/ml. […] Therefore 0, 0.125, 0.25, 0.5, 1 and […] final concentration was used. Nystatin was stored it in ˜1 mg dry aliquots at −20 C, and was prepared at a concentration of 2 mg/ml in DMSO for dilution into Neilands' media. According to reported information, nystatin should be effective at 1.5 to 6.5 µg/ml; therefore, 0, 0.5, 1, 5, 10 and 50 µg/ml were used as the final concentrations. Hygromycin gold stock was in solution at 100 mg/ml, and 0, 25, 50, 100, 150 and 200 µg/ml were used as the final concentrations in Neilands' medium. Plates were incubated for 3 days at 37° C. with shaking.
To test for siderophores, 20 μL of a solution of 2 mM FeCl3 in 10 mM HCl was added to each well in the receiver plates and the A440 was recorded on a plate reader. […] An increase in A440 indicates a more intense orange-red colour that develops in the presence of ferrated siderophores. […] Because 3-day incubation produces conidia, shorter incubation periods may be preferable.
Three identical plates were set up: one filter plate and two sterile clear 96-well plates. The clear plates were used to score growth, and the filter plate was used to detect siderophores. Columns 1-6 contained Neilands' medium without citrate and amphotericin 0-2 at g/ml. Columns 7-12 contained Neilands' medium with citrate and amphotericin at […]. The rows were set up with A. fumigatus as described above, but two sets of each were set up to be in the two plates. The spores from the previous experiment were stored at −20° C. in PBS, in siliconized tubes, at 2×10^8 conidia/ml, to facilitate these experiments. Plates were incubated for 48 hours at 37° C. without shaking.
The filter plate was centrifuged at 1000×g for 10 minutes and the liquids caught in a clear non-sterile plate, to which FeCl3 was added. The plate was allowed to sit and develop orange colour, and was then read at 440 nm. The clear plates (one without Fe and one with Fe added to growth medium from the beginning) were read at 600 nm (A600). In the result, iron enhanced conidiation. Some wells of the filter plate were lightly conidiated and would not drain. These were hand pipetted.

[7] = 1 ml GA, 4 days 37° C., 5 μM FeCl3
[8] = 1 ml GA, 96 hours, FeCl3 5 μM or ferrated TAF 10 μM
[9] = 5 ml GA medium, 4 days 37° C., 5 μM FeCl3 or 10 μM TAF
[10] = 1 ml GA + 5 μM FeCl3 + 10% serum, 50 μM desferri-TAF or desferri-ferricrocin, 4 days
[11] = GA + FeCl3 + 10% human serum, desferrisiderophore 50 μM

Chain of human holotransferrin (P02787 20-698): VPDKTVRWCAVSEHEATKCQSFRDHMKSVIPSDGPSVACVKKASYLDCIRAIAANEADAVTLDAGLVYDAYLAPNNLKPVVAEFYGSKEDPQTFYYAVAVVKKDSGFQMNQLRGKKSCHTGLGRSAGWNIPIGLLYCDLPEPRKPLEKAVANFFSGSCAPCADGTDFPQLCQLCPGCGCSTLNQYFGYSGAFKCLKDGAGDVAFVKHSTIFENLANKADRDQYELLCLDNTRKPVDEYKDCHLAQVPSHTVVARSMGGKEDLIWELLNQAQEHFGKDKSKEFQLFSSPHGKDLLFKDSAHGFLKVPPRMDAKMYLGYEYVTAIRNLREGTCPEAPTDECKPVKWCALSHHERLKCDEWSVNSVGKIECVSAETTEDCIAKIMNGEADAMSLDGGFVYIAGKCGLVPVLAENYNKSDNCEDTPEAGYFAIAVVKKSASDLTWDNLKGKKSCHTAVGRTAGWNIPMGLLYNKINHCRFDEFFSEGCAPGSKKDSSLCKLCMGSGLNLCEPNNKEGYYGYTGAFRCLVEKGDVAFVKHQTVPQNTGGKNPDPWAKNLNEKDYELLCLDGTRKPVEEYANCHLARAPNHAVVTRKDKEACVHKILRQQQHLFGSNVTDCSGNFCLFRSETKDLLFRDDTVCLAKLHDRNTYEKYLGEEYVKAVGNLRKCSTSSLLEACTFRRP

With [Cl][Fe]([Cl])[Cl] [FeCl3] the “Mean mycelial dry wt after 96 h” value [1] was 0.80^1 mg, the “dry weight, parental” value [2, 7] was 7.8^1 mg and the “Growth (mg dry weight) mean ± S.D., wild type” value (shortened to “Growth … wild type”) [2, 8] was 6.5 ± 0.4 mg dry weight. For the same molecule, the “dry weight, parental” value [2, 9] was 44.3^1 mg, the “dry weight, ΔsidA” value [3, 7] was 7.1^1 mg and the “Growth (mg dry weight) mean ± S.D., ΔsidA” value [3, 8] was 1.4 ± 1.1 mg dry weight. For the same molecule, the “dry weight, ΔsidA” value [3, 9] was 47.4^1 mg and the “Growth (mg dry weight) mean ± S.D., ΔsidAR” value (from here on “Growth … ΔsidAR”) [4, 8] was 7.5 ± 0.3 mg dry weight.

In the case of CC(=O)NC1CCCN(O)C(=O)/C=C(/C)CCOC(=O)C(NC(C)=O)CCCN(O)C(=O)/C=C(/C)CCOC(=O)C(NC(C)=O)CCCN(O)C(=O)/C=C(/C)CCOC1=O (stereo not drawn) [TAF, N′,N″,N′″-triacetylfusarinine C], the “Affinity of iron removal from holotransferrin” value [5] is reported as “comparable to that of ferrichrome”, the “dry weight, parental” value [2, 10] is reported as 9.7^1 mg and the “Growth … wild type” value [2, 8] is reported as 6.2 ± 0.5 mg dry weight. For the same molecule, the “dry weight, parental” value [2, 9] was 41^1 mg, the “dry weight, ΔsidA” value [3, 10] was 7.2^1 mg and the “Growth (mg dry weight) mean ± S.D., ΔsidA” value [3, 8] was 4.4 ± 1.5 mg dry weight. The “dry weight, ΔsidA” value [3, 9] was 46^1 mg, the “Growth … ΔsidAR” value [4, 8] was 6.0 ± 0.1 mg dry weight and the “Stability in human serum” value was “stable in human serum”.

In the case of CC(=O)NC1CCCN(O)C(=O)C=C(C)CCOC(=O)C(NC(C)=O)CCCN(O)C(=O)C=C(C)CCOC(=O)C(NC(C)=O)CCCN(O)C(=O)C=C(C)CCOC1=O (stereo not drawn) [desferri-TAF, Desferritriacetylfusarinine C], the “Concentration able to remove some iron from holotransferrin” value [5] is reported as 500 µM, the “Concentration at which complete absence of holotransferrin was observed” value (from here on “Concentration at which complete absence”) [5] is reported as 5 mM and the “Growth … wild type” value [2, 11] is reported as 10.1 ± 0.4 mg dry weight. The “Restoration of growth of ΔsidA in the presence of human serum” value [3] was “restored to wild-type levels”, the “Growth (mg dry weight) mean ± S.D., ΔsidA” value [3, 11] was 12.3 ± 1.2 mg dry weight and the “Growth … ΔsidAR” value [4, 11] was 11.3 ± 0.3 mg dry weight.

For CC(=O)N(O)CCCC1NC(=O)CNC(=O)CNC(=O)CNC(=O)C(CCCN(O)C(C)=O)NC(=O)C(CCCN(O)C(C)=O)NC1=O (stereo not drawn) [desferriferrichrome] (cyclo(GGG[ξOrn(N(OH)Ac)][ξOrn(N(OH)Ac)][ξOrn(N(OH)Ac)])), the “Concentration at which complete absence” value [5] was 5 mM.

In the case of CC(=O)N(O)CCC[C@@H]1NC(=O)CNC(=O)[C@H](CO)NC(=O)CNC(=O)[C@H](CCCN(O)C(C)=O)NC(=O)[C@H](CCCN(O)C(C)=O)NC1=O [desferriferricrocin] (cyclo(GSG[Orn(N5-OH,N5-Ac)][Orn(N5-OH,N5-Ac)][Orn(N5-OH,N5-Ac)])), the “Concentration able to remove some iron from holotransferrin” value [5] is reported as 500 µM, the “Concentration at which complete absence” value [5] is reported as 5 mM and the “Growth … wild type” value [2, 11] is reported as 9.7 ± 2.00 mg dry weight. The “Restoration of growth of ΔsidA in the presence of human serum” value [3] was “restored to wild-type levels”, the “Growth (mg dry weight) mean ± S.D., ΔsidA” value [3, 11] was 11.1 ± 1.1 mg dry weight and the “Growth … ΔsidAR” value [4, 11] was 11.0 ± 1.2 mg dry weight.

With CC(=O)N([O-])CCC[C@@H]1NC(=O)CNC(=O)[C@H](CO)NC(=O)CNC(=O)[C@H](CCCN([O-])C(C)=O)NC(=O)[C@H](CCCN([O-])C(C)=O)NC1=O.[Fe+3] [ferricrocin] (cyclo(GSG[Orn(N5-OH,N5-Ac)][Orn(N5-OH,N5-Ac)][Orn(N5-OH,N5-Ac)])) the “Affinity of iron removal from holotransferrin” value [5] was “comparable to that of ferrichrome”, the “dry weight, parental” value [2, 10] was 11.1^1 mg and the “dry weight, ΔsidA” value [3, 10] was 11.0^1 mg.

In the case of C[C@@H]1[C@H](O)[C@@H](C)/C=C/C=C/CC/C=C/C=C/C=C/C=C/C(O[C@H]2O[C@H](C)[C@@H](O)[C@H](N)[C@@H]2O)CC2O[C@](O)(CC(O)C(O)CCC(O)CC(O)CC(O)CC(=O)O[C@H]1C)CC(O)C2C(=O)O (stereo partly drawn) [nystatin], the “A440 (ferrated siderophores)” value ([6]; nystatin 0.5 μg/ml, 100000 spores/ml) is reported as 0.341 and 0.414 and 0.359, the “A440 (ferrated siderophores)” value ([6]; nystatin 0.5 μg/ml, 1000000 spores/ml) is reported as 0.416 and 0.382 and 0.232 and the “A440 (ferrated siderophores)” value ([6]; nystatin 1 μg/ml, 100000 spores/ml) is reported as 0.340 and 0.31 and 0.325. The “A440 (ferrated siderophores)” value ([6]; nystatin 1 μg/ml, 1000000 spores/ml) was 0.412 and 0.492 and 0.329, the “A440 (ferrated siderophores)” value ([6]; nystatin 5 μg/ml, 100000 spores/ml) was 0.048 and 0.042 and 0.044 and the “A440 (ferrated siderophores)” value ([6]; nystatin 5 μg/ml, 1000000 spores/ml) was 0.042 and 0.043. For the same molecule, the “A440 (ferrated siderophores)” value ([6]; nystatin 10 μg/ml, 100000 spores/ml) was 0.043 and 0.045 and 0.042, the “A440 (ferrated siderophores)” value ([6]; nystatin 10 μg/ml, 1000000 spores/ml) was 0.042 and 0.043 and 0.050 and the “A440 (ferrated siderophores)” value ([6]; nystatin 50 μg/ml, 100000 spores/ml) was 0.048 and 0.052 and 0.051. The “A440 (ferrated siderophores)” value ([6]; nystatin 50 μg/ml, 1000000 spores/ml) was 0.048 and 0.051.

In the case of “Apotransferrin: iron-free human transferrin”, the “Mean mycelial dry wt after 96 h” value [1] is reported as 0.02^1 mg.

For “Holotransferrin: purified human iron-saturated transferrin”, the “Mean mycelial dry wt after 96 h” value [1] was 1.30^1 mg.
